{"source": "ChEMBL document CHEMBL1152113", "about": "“The prooligonucleotide approach. III: Synthesis and bioreversibility of a chimeric phosphorodithioate prooligonucleotide” (Bioorg Med Chem Lett, 1996)", "key": {"[1]": {"assay": "Half life period was reported in porcine liver esterase medium", "type": "ADME, Sus scrofa", "conditions": "pig"}, "[2]": {"assay": "Half life period was reported in a culture medium (RPMI 1640 + 10% FCS)", "type": "ADME"}, "[3]": {"assay": "Half life period was reported in total cell extract medium", "type": "ADME"}, "[4]": {"assay": "Half life period was reported in gastric juice, stable; No degradation observed up to 30 days", "type": "ADME, tissue-based", "conditions": "simulated gi fluid, 720 h"}, "[5]": {"assay": "Half life period was reported in gastric juice", "type": "ADME, tissue-based"}, "[6]": {"assay": "Half life period was reported in gastric juice; stable No degradation observed up to 30 days", "type": "ADME, tissue-based", "conditions": "simulated gi fluid, 720 h"}}, "data": [{"smiles": "Cc1cn([C@H]2C[C@H](OP(=S)(OC[C@H]3O[C@@H](n4cc(C)c(=O)[nH]c4=O)C[C@@H]3O)SCCSC(=O)c3ccccc3)[C@@H](CO)O2)c(=O)[nH]c1=O", "note": "(some centres undefined)", "values": [{"measurement": "half-life", "setting": "[1]", "result": 5, "unit": "min"}, {"measurement": "half-life", "setting": "[2]", "result": 46.5, "unit": "h"}, {"measurement": "half-life", "setting": "[3]", "result": 36, "unit": "min"}, {"measurement": "T1/2", "setting": "[4]", "result": "No degradation"}]}, {"smiles": "CCCCCCCCCCCCOC[C@H]1O[C@@H](n2cc(C)c(=O)[nH]c2=O)C[C@@H]1O", "values": [{"measurement": "half-life", "setting": "[2]", "result": 32, "unit": "h"}, {"measurement": "half-life", "setting": "[3]", "result": 15, "unit": "min"}]}, {"smiles": "CC(=O)SCCSP(=S)(OC[C@H]1O[C@@H](n2cc(C)c(=O)[nH]c2=O)C[C@@H]1O)O[C@H]1C[C@H](n2cc(C)c(=O)[nH]c2=O)O[C@@H]1CO", "note": "(some centres undefined)", "values": [{"measurement": "half-life", "setting": "[1]", "result": "< 2", "unit": "min"}, {"measurement": "half-life", "setting": "[2]", "result": 6, "unit": "h"}, {"measurement": "half-life", "setting": "[5]", "result": 168, "unit": "h"}, {"measurement": "half-life", "setting": "[3]", "result": "< 5", "unit": "min"}]}, {"smiles": "Cc1cn([C@H]2C[C@H](OP(=S)(OC[C@H]3O[C@@H](n4cc(C)c(=O)[nH]c4=O)C[C@@H]3O)SCCSC(=O)C(C)(C)C)[C@@H](CO)O2)c(=O)[nH]c1=O", "note": "(some centres undefined)", "values": [{"measurement": "half-life", "setting": "[1]", "result": "< 4", "unit": "min"}, {"measurement": "half-life", "setting": "[2]", "result": 42.7, "unit": "h"}, {"measurement": "half-life", "setting": "[3]", "result": 54, "unit": "min"}, {"measurement": "T1/2", "setting": "[6]", "result": "No degradation"}]}]}
